Test system: resiniferatoxin (RTX)-induced mouse ear edema
Experiment: Inhibition of resiniferatoxin-induced inflammation (edema) of the mouse ear
Type: in vivo
Settings: 50 μg/ear topically in acetone together with RTX 0.1 μg/ear, 30-minute incubation, relative to control group edema
Method: Inhibition of Resiniferatoxin-Induced Inflammation (Edema) of the Mouse Ear
Induction of mouse ear edema can be conducted by known methods (Inoue, 1-f., N. Nagata, Y. Koshffiara [1993]). Compounds to be tested for anti-neurogenic inflammatory activity are topically applied in acetone to the ears of mice in a solution that includes the edema-causing irritant resiniferatoxin (RTX). RTX alone (0.1 μg/ear) or in combination with various dilutions of test compound are applied to both sides of the left ears (5 mice per treatment group) and acetone is applied to all right ears. After a 30-minute incubation, the mice are sacrificed, the ears removed, and bores taken and weighed. Edema is measured by subtracting the weight of the right ear (acetone control) from the weight of the left ear (treated). Results are recorded as % decrease (inhibition) or % increase (potentiation) in edema relative to the control group edema.
Bis-heterocycle compounds of the subject invention, e.g., the bis-indole compounds, show significant anti-inflammatory properties.

SMILES	inhibition of RTX-induced edema
CC(c1cnc(N)[nH]1)c1nc(C(=O)c2c[nH]c3cc(O)ccc23)[nH]c1-c1c[nH]c2cc(Br)ccc12 (stereo not drawn) [topsentin e]	approximately 88.4%
Nc1ncc(C(Cc2nc(C(=O)c3c[nH]c4cc(O)ccc34)[nH]c2-c2c[nH]c3cc(Br)ccc23)C(=O)O)[nH]1 (stereo not drawn) [topsentin d]	approximately 96.9%
CC1c2[nH]c(N)nc2C2(O)CC1c1c(-c3cnc(-c4c[nH]c5cc(Br)ccc45)c(=O)[nH]3)c[nH]c1C2=O (stereo not drawn) [dragmacidin f]	approximately 69.9%

From US6589957B2, “Compounds and methods of use for treatment of neurogenic inflammation” (Harbor Branch Oceanographic Institution, Inc., priority 1998, dated 2003)
